Reference: paper PMC9458004, “Simultaneous Determination and Pharmacokinetics Study of Three Triterpenes from Sanguisorba officinalis L. in Rats by UHPLC–MS/MS” (Molecules, 2022)

Experiments:
[1] = Pharmacokinetic study in rats after single oral administration of ZGI, DGE, PA or S. officinalis extract (plasma, UHPLC-MS/MS); format: in vivo, Sprague-Dawley rats; conditions: for conversion in vivo after oral administration (in words): rats, oral administration of the monomer, from plasma levels of ZGI, DGE, PA
From the text: The UHPLC–MS/MS method was successfully used in the pharmacokinetic studies of the three analytes after single dose administration of ZGI, DGE, PA, and S. officinalis extract in rats (0.55 g/kg, equivalent to 0.03, 0.013, and 0.007 g/kg of ZGI, DGE, and PA, respectively). Based on the body surface area calculations of people and the animals and equivalent dose conversion calculations, the dosage of the rats was 0.55 g/kg.
The experimental protocol was permitted by the Animal Ethics Committee of Harbin Medical University (Approval Code: AECHMU20150021, Approval Date: 3 June 2015) and conformed to the principles for the Care and Use of Laboratory Animals. Twenty-four male Sprague-Dawley rats (weighting 200 ± 20 g), which were provided by the Laboratory Animal Center at Harbin Medical University (Harbin, China), were used for the pharmacokinetic study. The animals were maintained in a SPF-grade room on a 12 h light/dark cycle with a controlled temperature conditions (21 ± 2 °C) and relative humidity (50 ± 5%) before the experiment. During the adaptation process, all rats were provided with standard food and purified water each morning and evening. Each rat fasted for 12 h before giving the drug and was randomly divided into one of four groups (n = 6).
A single dose of the S. officinalis extract (0.55 g/kg, group I), ZGI (0.03 g/kg, group II), DGE ([…], group III), and PA (0.013 g/kg, group IV) was administrated to the rats. The S. officinalis extract was dissolved in water. A single dose of 0.55 g/kg of S. officinalis extract was administrated to the rats. Blood was obtained from the retinal venous plexus at 0, 0.083, 0.5, 1.0, 1.5, 2.0, 2.5, 3.0, 4.0, 6.0, 8.0, 12.0, and 24.0 h after dosing. The plasma was immediately separated by centrifugation at 8000 rpm for 4 min at −4 °C.
The maximum concentration (Cmax) and the time to attain it (Tmax) were observed directly from the measured data. The elimination rate constant (Ke) was calculated by linear regression of the terminal points in a semi-log plot of the plasma concentration against time. The area under plasma concentration–time curve (AUC0→t) to the last measurable plasma concentration (Ct) was estimated using the linear trapezoidal rule.
Calculate the amount of three compounds using linear regression from the standard curve. The pharmacokinetic parameters of the analytes were calculated with DAS 2.0 (Shanghai, China). All results were expressed as mean ± SD. The comparison of pharmacokinetic parameters was conducted using standard Student’s t-test. Differences between groups were assumed statistically significant for p values < 0.05.

[2] = Stability of the three analytes in rat plasma under various storage conditions; format: in vitro ADME; conditions: n = 6; for Stability (% RE) Post-Preparative: 12 h after sample preparation at 4 °C; for Stability (% RE) Short-Term / Stability (% RE) Three Freeze-Thaw: rat plasma; for Stability (% RE) Short-Term: 4 h at ambient temperature; for Stability (% RE) Three Freeze-Thaw: three freeze-thaw cycles at −20 °C
Method: The stability of rat plasma under different storage conditions was determined. […] All compounds maintained steady levels for […].
The stability of the three compounds in rat plasma, including freeze and thaw stability (three freeze-thaw cycles at −20 °C), long-term stability (storage for 2 weeks at −80 °C), room temperature stability (storage for 4 h at ambient temperature), and post-preparation stability (storage for 12 h after sample preparation at 4 °C), was tested at two QC levels with six replicates at each level. All stability testing QC samples were determined using the calibration curve of freshly prepared standard samples.

[3] = as above; format: in vitro ADME; conditions: storage for 2 weeks at −80 °C (b26 says −20 °C), n = 6
[4] = high QC (ZGI 2080, DGE 1840, PA 840.0 ng/mL)
[5] = low QC (ZGI 19.5, DGE 17.4, PA 7.8 ng/mL)

Row | Structure (SMILES) | conversion in vivo after oral administration (in words) [1] | Stability (% RE) Post-Preparative [2, 4] [% RE] | Stability (% RE) Post-Preparative [2, 5] [% RE] | Stability (% RE) Short-Term [2, 4] [% RE] | Stability (% RE) Short-Term [2, 5] [% RE] | Stability (% RE) Three Freeze-Thaw [2, 4] [% RE] | Stability (% RE) Three Freeze-Thaw [2, 5] [% RE] | Stability (% RE) Long-Term [3, 4] [% RE] | Stability (% RE) Long-Term [3, 5] [% RE] | Cmax ([1]; male, Sprague-Dawley, analyte ZGI in rat plasma, single oral dose of the row's substance (S. officinalis extract 0.55 g/kg, ZGI 0.03 g/kg), n = 6, mean ± SD) [ng/mL] | Tmax ([1]; male, Sprague-Dawley, analyte ZGI in rat plasma, single oral dose of the row's substance (extract 0.55 g/kg, ZGI 0.03 g/kg), n = 6) [h] | half-life ([1]; male, Sprague-Dawley, analyte ZGI in rat plasma, single oral dose of the row's substance (extract 0.55 g/kg, ZGI 0.03 g/kg), n = 6, read-out: t1/2 of ZGI (converted)) [h]
1 | C[C@@H]1CC[C@]2(C(=O)O)CC[C@]3(C)C(=CC[C@@H]4[C@@]5(C)CC[C@H](O)C(C)(C)[C@@H]5CC[C@]43C)[C@@H]2[C@]1(C)O [PA, pomolic acid] | cannot convert into ZGI and DGE | 13 | 7.1 | 3.1 | −5.0 | 5.2 | 12 | 7.6 | 13 | – | – | –
2 | CC1CCC2(C(=O)OC3OC(CO)C(O)C(O)C3O)CCC3(C)C(=CCC4C5(C)CCC(O)C(C)(C)C5CCC43C)C2C1(C)O [DGE, 3β,19α-dihydroxyurs-12-en-28-oic-acid 28-β-D-glucopyranosyl ester] | may be transformed into PA | 7.7 | 14 | 0.70 | 8.4 | 3.5 | 3.3 | 5.8 | 9.6 | – | – | –
3 | C[C@@H]1CC[C@]2(C(=O)O[C@@H]3O[C@H](CO)[C@@H](O)[C@H](O)[C@H]3O)CC[C@]3(C)C(=CC[C@@H]4[C@@]5(C)CC[C@H](O[C@@H]6OC[C@H](O)[C@H](O)[C@H]6O)C(C)(C)[C@@H]5CC[C@]43C)[C@@H]2[C@]1(C)O [ZGI, Ziyuglycoside I] | may be converted into DGE and PA | 6.4 | 9.2 | 2.4 | 14 | 2.8 | 6.2 | 3.4 | 15 | 678 ± 47 | 1.4 ± 0.2 | 11 ± 1
